Measurements: article PMC6325233, “A Novel Actin Binding Drug with In Vivo Efficacy” (Antimicrobial Agents and Chemotherapy, 2018)

Key:
Assay type in all cases: cell-based
[1] = test system: Trichophyton mentagrophytes 28641; experiment: MIC susceptibility testing; details: CLSI M38-A2; 96 hours
Experimental: (§1) Occidiofungin was purified from a liquid culture of Burkholderia contaminans MS14 as previously described ([21]). MIC susceptibility testing was performed according to the CLSI M27-A3 and M38-A2 standards for the susceptibility testing of yeasts and filamentous fungi, respectively. S. cerevisiae deletion mutants were obtained from the commercially available BY4741 deletion library (Thermo Scientific).

[2] = test system: Trichophyton mentagrophytes 28556; experiment: MIC susceptibility testing; details: CLSI M38-A2; 96 hours
Experimental: as §1

[3] = test system: Trichophyton rubrum 28658; experiment: MIC susceptibility testing; details: CLSI M38-A2; 96 hours
Experimental: as §1

[4] = test system: Candida auris MRL# 35646; experiment: MIC susceptibility testing; details: CLSI M27-A3; 24 hours
Experimental: as §1

[5] = test system: Candida albicans 28200; experiment: MIC susceptibility testing; details: CLSI M27-A3
Experimental: as §1

[6] = test system: Trichophyton rubrum 28659; experiment: MIC susceptibility testing; details: CLSI M38-A2; 96 hours
Experimental: as §1

[7] = test system: Candida tropicalis 28478; experiment: MIC susceptibility testing; details: CLSI M27-A3
Experimental: as §1

[8] = test system: Candida parapsilosis 28364; experiment: MIC susceptibility testing; details: CLSI M27-A3
Experimental: as §1

[9] = test system: Candida krusei 28570; experiment: MIC susceptibility testing; details: CLSI M27-A3
Experimental: as §1

[10] = test system: Mucor circinelloides 19445; experiment: MIC susceptibility testing; details: CLSI M38-A2
Experimental: as §1

[11] = test system: Fusarium solani 18749; experiment: MIC susceptibility testing; details: CLSI M38-A2
Experimental: as §1

[12] = test system: Candida tropicalis 28272; experiment: MIC susceptibility testing; details: CLSI M27-A3
Experimental: as §1

[13] = test system: Candida albicans strain ATCC 66027; experiment: Hyphal induction (morphology switching) assay; details: for % hyphae / % yeast: 1 µg/ml
Experimental: The hyphal induction assay was performed as previously reported with minor modifications ([58]). Candida albicans strain ATCC 66027 was grown in yeast extract-peptone-dextrose (YPD) medium at 30°C for 48 h to reach saturation with an OD600 of 17 to 19. Cells were diluted into fresh Spider medium (1% nutrient broth, 1% mannitol, 0.2% K2HPO4) to obtain an OD600 of 0.05 (∼0.5 × 10^6 to 1 × 10^6 cells/ml) and incubated at 37°C with shaking to induce hyphal formation. Immediately prior to the 37°C incubation, occidiofungin (1 µg/ml; 0.5× MIC) or an equal volume of DMSO was added to the cultures. Aliquots were removed at 0-, 1-, 2-, 4-, and 6-h time points and fixed in 3.7% formaldehyde for later analysis of cell morphology by light microscopy. More than 200 cells were examined for each time point, and cells were scored as having either a yeast or filamentous form, with cells showing any outgrowth considered filamentous. DNA segregation assays were performed using a mid-log culture of S. cerevisiae (BY4743, diploid) and C. albicans (ATCC 66027). The cultures were diluted in fresh YPD medium to obtain OD600s of 0.095 (∼1 × 10^6 to 1.5 × 10^6 cells/ml) and 0.05 (0.5 × 10^6 to 0.8 × 10^6 cells/ml), respectively. A blank vehicle control (DMSO) or occidiofungin (1 µg/ml; 0.5× MIC) was added, and the cultures were placed at 30°C with shaking. Samples were removed at 0.5, 1, and 2 h, and the cells fixed by adding formaldehyde (3.7%). The cells were washed in phosphate-buffered saline (PBS) and permeabilized by adding an equivalent volume of PBS containing 0.2% Triton X-100 for 30 min at room temperature. The cells were washed thrice in PBS, added to concanavalin A-treated glass slides, and overlaid with Vectashield plus DAPI (4′,6-diamidino-2-phenylindole). Images were viewed using a Nikon 50i fluorescence microscope with a 100× oil immersion objective and DAPI filter. Cells were scored on the basis of bud morphology and DNA location. One-way analyses of variance (ANOVAs) with post hoc Tukey’s honestly significant difference (HSD) testing were used to determine statistically significant differences in the distributions between treated and untreated cells. In addition, FM-464 uptake assays were used to observe endocytosis. Three 1-ml aliquots of S. pombe (OD600 of 0.6 to 0.8) were treated with 1 μl DMSO, 0.5 μg/ml (0.5× MIC), or 1 μg/ml (1× MIC) of native occidiofungin for 30 min at 30°C. The cells were washed thrice with PBS and resuspended in YPD medium containing […] FM-464 (Thermo Fisher Scientific). The cells were incubated for 60 min at 30°C, followed by two washes in PBS before visualizing on an Olympus FV1000 confocal microscope with a 40×/0.9 dry objective. Lastly, actin polymerization and depolymerization assays were performed using the Actin polymerization biochem kit (catalog number BK003; Cytoskeleton, Inc.) according to the manufacturer’s instructions.

[14] = T=1hr, replicate 1, untreated 51.7/48.3
[15] = T=1hr, replicate 2, untreated 72.7/27.3
[16] = T=1hr, replicate 3, untreated 43.6/56.4
[17] = T=2hr, replicate 1, untreated 23.4/76.6
[18] = T=2hr, replicate 2, untreated 15.6/84.4
[19] = T=2hr, replicate 3, untreated 14.2/85.8
[20] = T=4hr, replicate 1, untreated 7.1/92.9
[21] = T=4hr, replicate 2, untreated 17.4/82.6
[22] = T=4hr, replicate 3, untreated 13.2/86.8
[23] = T=6hr, replicate 2, untreated 52.2/47.8
[24] = T=6hr, replicate 3, untreated 21.1/78.9

Substance: occidiofungin
- MIC, 80% inhibition [1]: 1 µg/mL
- MIC, 100% inhibition [1]: 2 µg/mL
- MIC, 80% inhibition [2]: 1 µg/mL
- MIC, 100% inhibition [2]: 2 µg/mL
- MIC, 80% inhibition [3]: 1 µg/mL
- MIC, 100% inhibition [3]: 2 µg/mL
- MIC, 50% inhibition [4]: 0.125 µg/mL
- MIC, 100% inhibition [4]: 0.25 µg/mL
- MIC, 50% inhibition ([5]; 24 hours): 4 µg/mL
- MIC, 100% inhibition ([5]; 24 hours): 8 µg/mL
- MIC, 50% inhibition ([5]; 48 hours): 4 µg/mL
- MIC, 100% inhibition ([5]; 48 hours): 8 µg/mL
- MIC, 80% inhibition [6]: 1 µg/mL
- MIC, 100% inhibition [6]: 2 µg/mL
- MIC, 50% inhibition ([7]; 24 hours): 4 µg/mL
- MIC, 100% inhibition ([7]; 24 hours): 8 µg/mL
- MIC, 50% inhibition ([7]; 48 hours): 4 µg/mL
- MIC, 100% inhibition ([7]; 48 hours): 8 µg/mL
- MIC, 50% inhibition ([8]; 24 hours): 4 µg/mL
- MIC, 100% inhibition ([8]; 24 hours): 8 µg/mL
- MIC, 50% inhibition ([8]; 48 hours): 4 µg/mL
- MIC, 100% inhibition ([8]; 48 hours): 8 µg/mL
- MIC, 50% inhibition ([9]; 24 hours): 4 µg/mL
- MIC, 100% inhibition ([9]; 24 hours): 8 µg/mL
- MIC, 50% inhibition ([9]; 48 hours): 4 µg/mL
- MIC, 100% inhibition ([9]; 48 hours): 8 µg/mL
- MIC, 50% inhibition ([10]; 24 hours): 4 µg/mL
- MIC, 100% inhibition ([10]; 24 hours): 8 µg/mL
- MIC, 50% inhibition ([10]; 48 hours): 4 µg/mL
- MIC, 100% inhibition ([10]; 48 hours): 8 µg/mL
- MIC, 50% inhibition ([11]; 24 hours): 2 µg/mL
- MIC, 100% inhibition ([11]; 24 hours): 4 µg/mL
- MIC, 50% inhibition ([11]; 48 hours): 2 µg/mL
- MIC, 100% inhibition ([11]; 48 hours): 4 µg/mL
- MIC, 50% inhibition ([12]; 24 hours): 4 µg/mL
- MIC, 100% inhibition ([12]; 24 hours): 8 µg/mL
- MIC, 50% inhibition ([12]; 48 hours): 4 µg/mL
- MIC, 100% inhibition ([12]; 48 hours): 8 µg/mL
- % hyphae ([13]; T=0hr, replicate 1): 0%
- % yeast ([13]; T=0hr, replicate 1): 100%
- % hyphae ([13]; T=0hr, replicate 2): 0%
- % yeast ([13]; T=0hr, replicate 2): 100%
- % hyphae ([13]; T=0hr, replicate 3): 0%
- % yeast ([13]; T=0hr, replicate 3): 100%
- % hyphae [13, 14]: 0%
- % yeast [13, 14]: 100%
- % hyphae [13, 15]: 0%
- % yeast [13, 15]: 100%
- % hyphae [13, 16]: 0%
- % yeast [13, 16]: 100%
- % hyphae [13, 17]: 0%
- % yeast [13, 17]: 100%
- % hyphae [13, 18]: 0%
- % yeast [13, 18]: 100%
- % hyphae [13, 19]: 0%
- % yeast [13, 19]: 100%
- % hyphae [13, 20]: 0.5%
- % yeast [13, 20]: 99.5%
- % hyphae [13, 21]: 0%
- % yeast [13, 21]: 100%
- % hyphae [13, 22]: 0.2%
- % yeast [13, 22]: 99.8%
- % hyphae [13, 23]: 0%
- % yeast [13, 23]: 100%
- % hyphae [13, 24]: 0%
- % yeast [13, 24]: 100%
- effect on hyphal formation ([13]; subinhibitory concentration (1 µg/ml; 0.5× MIC)): blocked hyphal formation
